Source: publication PMC8231556, “Inhibiting Endothelial Cell Function in Normal and Tumor Angiogenesis Using BMP Type I Receptor Macrocyclic Kinase Inhibitors” (Cancers, 2021)

Tests used:
Assay in all cases: radiometric kinase profiling (33 PanQinase)
Assay type in all cases: biochemical
[1] = target: T1, AXL (Homo sapiens, UniProt P30530); conditions: read-out: Inhibitory effect (%) AXL
T1 construct: purchased Proqinase, Germany
T1 sequence (P30530 26-894): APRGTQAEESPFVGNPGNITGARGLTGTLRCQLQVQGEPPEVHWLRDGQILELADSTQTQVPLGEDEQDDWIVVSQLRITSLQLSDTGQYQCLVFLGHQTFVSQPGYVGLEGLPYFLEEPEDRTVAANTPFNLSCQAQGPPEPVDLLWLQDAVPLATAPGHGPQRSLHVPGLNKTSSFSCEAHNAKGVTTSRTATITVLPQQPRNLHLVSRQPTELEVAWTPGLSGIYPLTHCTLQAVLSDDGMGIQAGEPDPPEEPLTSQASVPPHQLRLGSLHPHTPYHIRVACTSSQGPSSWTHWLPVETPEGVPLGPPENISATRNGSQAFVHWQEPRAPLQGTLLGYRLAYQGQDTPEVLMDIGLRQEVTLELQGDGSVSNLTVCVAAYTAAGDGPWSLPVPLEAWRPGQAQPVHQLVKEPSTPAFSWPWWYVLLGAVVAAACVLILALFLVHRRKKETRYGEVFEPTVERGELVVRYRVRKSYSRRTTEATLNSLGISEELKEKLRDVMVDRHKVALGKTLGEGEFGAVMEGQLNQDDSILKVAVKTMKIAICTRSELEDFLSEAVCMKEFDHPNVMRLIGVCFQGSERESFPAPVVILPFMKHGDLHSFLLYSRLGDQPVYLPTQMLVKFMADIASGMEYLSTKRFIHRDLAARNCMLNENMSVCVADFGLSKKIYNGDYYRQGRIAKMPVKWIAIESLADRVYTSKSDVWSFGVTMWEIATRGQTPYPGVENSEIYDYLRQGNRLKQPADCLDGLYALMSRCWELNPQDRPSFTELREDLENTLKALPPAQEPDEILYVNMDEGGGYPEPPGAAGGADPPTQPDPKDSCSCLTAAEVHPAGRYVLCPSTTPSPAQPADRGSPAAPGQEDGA
In short: (§1)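 Enzyme/substrate mixes were incubated with [γ-33P]-ATP and compound (added as a 0.1 μM solution in 10% DMSO) at 30 °C for 60 min, then stopped with H3PO4 and washed with NaCl. 33P incorporation was scintillation-counted, and residual activity (%) was normalized to untreated control and background.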

[2] = target: T2, SGK3 (Homo sapiens, UniProt Q96BR1); conditions: read-out: Inhibitory effect (%) SGK3
T2 construct: purchased ProQinase (33PanQinase Activity Assay)
T2 sequence (Q96BR1 1-496): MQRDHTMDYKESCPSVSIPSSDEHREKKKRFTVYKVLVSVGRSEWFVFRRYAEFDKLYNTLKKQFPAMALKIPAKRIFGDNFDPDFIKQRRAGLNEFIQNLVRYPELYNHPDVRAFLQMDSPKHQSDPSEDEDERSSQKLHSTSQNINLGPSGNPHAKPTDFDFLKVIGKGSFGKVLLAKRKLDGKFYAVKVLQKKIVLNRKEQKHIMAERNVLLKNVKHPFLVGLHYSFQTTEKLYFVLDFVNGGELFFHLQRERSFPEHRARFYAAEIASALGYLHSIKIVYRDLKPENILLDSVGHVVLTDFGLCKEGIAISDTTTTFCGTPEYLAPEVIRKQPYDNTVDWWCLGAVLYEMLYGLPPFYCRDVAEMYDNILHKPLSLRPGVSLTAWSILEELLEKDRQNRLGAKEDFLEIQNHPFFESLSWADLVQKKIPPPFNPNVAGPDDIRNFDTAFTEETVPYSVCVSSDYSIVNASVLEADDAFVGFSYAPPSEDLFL
In short: as §1

[3] = target: T3, EPHB4 (Homo sapiens, UniProt P54760); conditions: read-out: Inhibitory effect (%) EPHB4
T3 construct: purchased ProQinase (33PanQinase Activity Assay)
T3 sequence (P54760 16-987): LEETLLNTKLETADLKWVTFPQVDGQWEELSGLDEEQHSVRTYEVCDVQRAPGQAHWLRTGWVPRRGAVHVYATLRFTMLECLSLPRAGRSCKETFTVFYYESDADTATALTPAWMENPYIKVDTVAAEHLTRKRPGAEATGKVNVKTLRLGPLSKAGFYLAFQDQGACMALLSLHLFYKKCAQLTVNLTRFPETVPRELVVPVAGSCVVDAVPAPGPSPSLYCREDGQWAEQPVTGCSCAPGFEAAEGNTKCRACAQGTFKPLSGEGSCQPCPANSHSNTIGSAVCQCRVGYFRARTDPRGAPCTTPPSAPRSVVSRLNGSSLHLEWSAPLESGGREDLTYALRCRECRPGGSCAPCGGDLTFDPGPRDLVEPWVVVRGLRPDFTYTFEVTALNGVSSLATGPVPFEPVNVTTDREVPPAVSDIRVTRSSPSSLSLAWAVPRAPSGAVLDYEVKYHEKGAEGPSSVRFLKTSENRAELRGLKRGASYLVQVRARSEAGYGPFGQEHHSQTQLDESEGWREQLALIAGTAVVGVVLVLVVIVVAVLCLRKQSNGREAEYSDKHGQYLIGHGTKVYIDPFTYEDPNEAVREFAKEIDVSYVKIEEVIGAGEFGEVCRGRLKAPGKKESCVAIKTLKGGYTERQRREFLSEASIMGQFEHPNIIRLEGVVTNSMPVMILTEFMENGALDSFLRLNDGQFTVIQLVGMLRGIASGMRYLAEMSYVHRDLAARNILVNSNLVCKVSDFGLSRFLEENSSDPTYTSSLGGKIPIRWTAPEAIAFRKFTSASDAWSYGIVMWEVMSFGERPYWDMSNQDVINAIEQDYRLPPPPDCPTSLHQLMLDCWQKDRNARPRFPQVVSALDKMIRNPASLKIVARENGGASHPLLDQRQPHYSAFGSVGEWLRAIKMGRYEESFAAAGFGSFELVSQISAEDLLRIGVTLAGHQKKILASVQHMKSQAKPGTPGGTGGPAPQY
In short: as §1

[4] = target: T4, SRPK1 (Homo sapiens, UniProt Q96SB4); conditions: read-out: Inhibitory effect (%) SRPK1
T4 construct: purchased ProQinase (33PanQinase Activity Assay)
T4 sequence (Q96SB4 whole entry): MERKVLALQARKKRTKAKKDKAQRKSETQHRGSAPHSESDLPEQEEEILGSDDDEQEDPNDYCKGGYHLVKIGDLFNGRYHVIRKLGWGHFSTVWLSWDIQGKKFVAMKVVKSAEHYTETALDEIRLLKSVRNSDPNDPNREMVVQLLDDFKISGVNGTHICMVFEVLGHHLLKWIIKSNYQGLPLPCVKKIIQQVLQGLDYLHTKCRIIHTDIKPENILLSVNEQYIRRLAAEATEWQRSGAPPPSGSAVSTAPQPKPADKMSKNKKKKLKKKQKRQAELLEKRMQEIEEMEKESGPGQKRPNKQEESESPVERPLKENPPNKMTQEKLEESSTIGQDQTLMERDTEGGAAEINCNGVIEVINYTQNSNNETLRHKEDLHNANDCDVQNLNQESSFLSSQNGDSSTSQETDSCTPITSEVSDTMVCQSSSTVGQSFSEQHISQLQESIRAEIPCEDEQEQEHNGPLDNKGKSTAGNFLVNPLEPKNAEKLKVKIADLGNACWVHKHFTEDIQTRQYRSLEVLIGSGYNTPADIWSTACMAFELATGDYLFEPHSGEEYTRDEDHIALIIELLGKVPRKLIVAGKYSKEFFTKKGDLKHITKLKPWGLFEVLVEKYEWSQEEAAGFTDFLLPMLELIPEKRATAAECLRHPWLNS
In short: as §1

[5] = target: T5, LRRK2 (Homo sapiens, UniProt Q5S007); conditions: read-out: Inhibitory effect (%) LRRK2
T5 construct: purchased ProQinase (33PanQinase Activity Assay)
T5 sequence (Q5S007 whole entry): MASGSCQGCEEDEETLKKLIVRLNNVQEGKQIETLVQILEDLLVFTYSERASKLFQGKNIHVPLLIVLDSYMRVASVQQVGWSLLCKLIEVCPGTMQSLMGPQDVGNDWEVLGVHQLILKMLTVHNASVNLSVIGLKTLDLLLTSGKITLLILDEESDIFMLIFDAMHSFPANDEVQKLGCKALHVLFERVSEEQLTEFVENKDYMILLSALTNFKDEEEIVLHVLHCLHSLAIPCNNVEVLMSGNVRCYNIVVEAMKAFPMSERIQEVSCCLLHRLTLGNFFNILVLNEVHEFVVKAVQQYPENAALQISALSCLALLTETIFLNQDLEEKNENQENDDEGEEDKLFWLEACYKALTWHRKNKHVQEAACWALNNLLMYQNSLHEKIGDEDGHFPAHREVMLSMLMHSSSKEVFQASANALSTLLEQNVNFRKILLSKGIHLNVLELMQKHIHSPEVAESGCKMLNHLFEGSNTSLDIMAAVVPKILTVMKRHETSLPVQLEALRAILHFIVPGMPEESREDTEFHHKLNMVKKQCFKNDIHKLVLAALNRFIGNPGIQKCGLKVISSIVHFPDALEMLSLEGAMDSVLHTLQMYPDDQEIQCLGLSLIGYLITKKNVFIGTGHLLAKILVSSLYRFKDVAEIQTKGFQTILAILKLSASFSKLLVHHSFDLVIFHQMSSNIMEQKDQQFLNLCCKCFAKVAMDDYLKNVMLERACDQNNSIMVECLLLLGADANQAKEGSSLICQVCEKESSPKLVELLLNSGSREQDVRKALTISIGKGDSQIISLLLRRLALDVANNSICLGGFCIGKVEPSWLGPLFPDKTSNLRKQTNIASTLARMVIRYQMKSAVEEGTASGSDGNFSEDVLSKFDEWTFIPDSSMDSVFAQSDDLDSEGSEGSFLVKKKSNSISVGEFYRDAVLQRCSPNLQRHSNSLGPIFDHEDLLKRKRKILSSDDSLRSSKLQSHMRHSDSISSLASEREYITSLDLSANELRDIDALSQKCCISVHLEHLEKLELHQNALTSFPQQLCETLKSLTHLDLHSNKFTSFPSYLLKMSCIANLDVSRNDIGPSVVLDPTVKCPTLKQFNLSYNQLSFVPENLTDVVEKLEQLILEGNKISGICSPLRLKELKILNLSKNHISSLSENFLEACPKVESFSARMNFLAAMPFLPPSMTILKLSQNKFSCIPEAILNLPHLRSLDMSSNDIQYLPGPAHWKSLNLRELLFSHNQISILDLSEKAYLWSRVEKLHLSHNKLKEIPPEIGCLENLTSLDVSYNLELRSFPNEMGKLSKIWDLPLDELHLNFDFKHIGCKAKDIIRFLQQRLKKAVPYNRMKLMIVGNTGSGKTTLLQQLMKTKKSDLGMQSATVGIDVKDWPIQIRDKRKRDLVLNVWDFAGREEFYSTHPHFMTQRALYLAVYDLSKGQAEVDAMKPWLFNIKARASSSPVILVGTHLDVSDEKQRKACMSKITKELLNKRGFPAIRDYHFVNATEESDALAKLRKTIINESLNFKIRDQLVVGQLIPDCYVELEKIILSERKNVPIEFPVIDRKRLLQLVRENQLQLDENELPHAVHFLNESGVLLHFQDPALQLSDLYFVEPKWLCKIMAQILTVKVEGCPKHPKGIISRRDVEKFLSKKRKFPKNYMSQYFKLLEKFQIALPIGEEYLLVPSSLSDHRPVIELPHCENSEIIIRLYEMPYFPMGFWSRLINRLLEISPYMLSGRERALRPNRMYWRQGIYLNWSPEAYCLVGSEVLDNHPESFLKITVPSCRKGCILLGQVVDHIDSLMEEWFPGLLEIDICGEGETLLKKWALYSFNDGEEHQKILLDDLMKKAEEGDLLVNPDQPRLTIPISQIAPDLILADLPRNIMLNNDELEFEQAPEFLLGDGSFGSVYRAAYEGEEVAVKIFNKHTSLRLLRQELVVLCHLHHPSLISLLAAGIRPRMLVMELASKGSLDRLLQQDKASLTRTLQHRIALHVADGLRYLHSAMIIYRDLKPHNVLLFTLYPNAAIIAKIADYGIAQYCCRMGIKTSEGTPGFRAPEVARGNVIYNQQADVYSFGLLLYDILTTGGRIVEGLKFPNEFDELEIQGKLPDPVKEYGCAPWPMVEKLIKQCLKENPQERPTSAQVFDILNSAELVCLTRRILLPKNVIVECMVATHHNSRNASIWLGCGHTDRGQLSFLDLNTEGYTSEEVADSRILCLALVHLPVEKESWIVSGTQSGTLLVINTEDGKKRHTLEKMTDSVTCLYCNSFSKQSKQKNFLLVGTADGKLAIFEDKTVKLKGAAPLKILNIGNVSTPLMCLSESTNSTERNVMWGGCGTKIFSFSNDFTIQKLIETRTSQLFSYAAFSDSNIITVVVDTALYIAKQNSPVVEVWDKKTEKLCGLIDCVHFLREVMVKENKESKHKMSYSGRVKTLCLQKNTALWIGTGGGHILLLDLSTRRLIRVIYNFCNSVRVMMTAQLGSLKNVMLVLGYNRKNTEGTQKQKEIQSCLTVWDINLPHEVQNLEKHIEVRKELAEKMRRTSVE
In short: as §1

Row | SMILES | inhibition at 0.1 µM [1] | inhibition at 0.1 µM [2] | inhibition at 0.1 µM [3] | inhibition at 0.1 µM [4] | inhibition at 0.1 µM [5]
1 | CN1CCC(=O)NCCNc2ccn3ncc(c3n2)-c2cccc(c2)C1 [OD29] | 5.83% | -21.9% | 3.64% | 21.5% | 13.8%
2 | CN1CCc2cccc(c2)Nc2nccc(n2)N2CCCc3cc(ccc32)C1 [OD16] | -34.5% | 2.44% | -36.6% | -24.9% | 18.4%
3 | c1ccc2c(-c3cnn4cc(-c5ccc(N6CCNCC6)cc5)cnc34)ccnc2c1 [LDN-193189, reference compound] | 10.7% | -26.9% | 4.39% | -16.5% | 5.16%
